Experimental data: patent US20230339977A1, “SUBSTITUTED HETEROARYL COMPOUND, AND COMPOSITION AND APPLICATION THEREOF” (SUNSHINE LAKE PHARMA CO., LTD., priority 2020, published 2023)

test system: JAK2/TYK2; assay: Cell level activity test of JAK2/TYK2 (IL-12 mediated IFNγ expression in NK92 cells); type: cell-based; conditions: IFNγ in supernatant by ELISA, NK92 cells with IL-12, 24 h
Source text: TYK2 belongs to the JAK family, and can accept the ligand acting on the coupled receptor signal to regulate downstream signal activator of transcription (STAT) phosphorylation. Phosphorylation of STAT can regulate the expression of downstream related genes, leading to changes in physiological functions such as cell proliferation and differentiation. IL-12 mediates IFNγ expression in NK92 cells through JAK2/TYK2.
Therefore, by inhibiting TYK2 activity, inhibition of this cascade pathway leads to a decrease in IFNγ expression. However, IL-2 can induce NK92 proliferation and produce IFNγ through receptor-coupled […], so the influence of IL-2 needs to be ruled out. In this experiment, the activity of compounds on JAK2/TYK2 was evaluated by detecting the expression of IFNγ at various compound concentrations.
The test compound was dissolved in DMSO, prepared into a 20 mM stock solution, and stored at -20° C. for future use. The mother solution was diluted 10 times with DMSO to make a 2 mM solution, then diluted with medium to an initial concentration of […], and then diluted 3-fold with medium containing 5% DMSO to obtain a prepared concentration gradient of […], 33333.3 nM, 11111.1 nM, 3703.70 nM, 1234.57 nM, 411.523 nM, 137.174 nM, 45.7247 nM, 15.2416 nM; 10 ul of the above-mentioned concentration of drugs were added into a 96-well plate to obtain the final concentrations of […], 3333.3 nM, 1111.1 nM, 370.4 nM, 123.5 nM, 41.1 nM, 13.7 nM, 4.6 nM, 1.52 nM;
NK92 cells were resuscitated and cultured, 16 h before the experiment, the medium was replaced with interleukin-free medium. The mixture was centrifuged and IL-12 medium was added to resuspend the cells, seeded 95 ul in a 96-well plate at a density of 20,000 cells/well, 10 ul of the above gradual dilution was added and incubated for 24 h, centrifuged to take the supernatant, diluted 3-fold with pure water, and the IFNγ concentration of the supernatant was detected by ELISA, the IC50 value was calculated.

| Compound | IC50 |
| --- | --- |
| CO[C@@H](C)CCOc1cc(-c2cn(C)c3cnc(NC(C)=O)cc23)nc2c1CCOC21CCOC1 (stereo partly drawn) [Example 38, N-(3-(4′-((S)-3-Methoxybutoxy)-4,5,5′,6′-Tetrahydro-2H-Spiro[Furan-3,8′-Pyrano[3,4-b]Pyridin]-2′-yl)-1-Methyl-1H-Pyrrolo[2,3-c]Pyridin-5-yl)Acetamide] | 27.7 nM |

same assay, conditions: NK92, 24 h, IFNγ in supernatant by ELISA, NK92 cells with IL-12, 24 h

| Compound | IC50 |
| --- | --- |
| COC(C)CCOc1cc(-c2cn(C)c3cnc(NC(C)=O)cc23)nc2c1CCOC21CCOC1 (stereo in doubt) [Example 43, N-(3-(4′-((R)-3-Methoxybutoxy)-4,5,5′,6′-Tetrahydro-2H-Spiro[Furan-3,8′-Pyrano[3,4-b]Pyridin]-2′-yl)-1-Methyl-1H-Pyrrolo[2,3-c]Pyridin-5-yl)Acetamide] | 26.4 nM |
| COCCOCCCOc1cc(-c2cn(C)c3cnc(NC(C)=O)cc23)nc2c1CCOC21CCOC1 (centres unmarked) [Example 32, N-(3-(4′-(3-(2-Methoxyethoxy)Propoxy)-4,5,5′,6′-Tetrahydro-2H-Spiro[Furan-3,8′-Pyrano[3,4-b]Pyridin]-2′-yl)-1-Methyl-1H-Pyrrolo[2,3-c]Pyridin-5-yl)Acetamide] | 30.6 nM |
| CC(=O)Nc1cc2c(-c3cc(OCC[C@@H](C)O)c4c(n3)C3(CCOC3)OCC4)cn(C)c2cn1 (stereo partly drawn) [Example 37, N-(3-(4′-((R)-3-Hydroxybutoxy)-4,5,5′,6′-Tetrahydro-2H-Spiro[Furan-3,8′-Pyrano[3,4-b]Pyridin]-2′-yl)-1-Methyl-1H-Pyrrolo[2,3-c]Pyridin-5-yl)Acetamide] | 20 nM |
| CC(=O)Nc1cc2c(-c3cc(OCC[C@H](C)O)c4c(n3)C3(CCOC3)OCC4)cn(C)c2cn1 (stereo partly drawn) [Example 39, N-(3-(4′-((S)-3-Hydroxybutoxy)-4,5,5′,6′-Tetrahydro-2H-Spiro[Furan-3,8′-Pyrano[3,4-b]Pyridin]-2′-yl)-1-Methyl-1H-Pyrrolo[2,3-c]Pyridin-5-yl)Acetamide] | 11 nM |
| CC(=O)Nc1cc2c(-c3cc(OCCC(C)(C)C#N)c4c(n3)C3(CCOC3)OCC4)cn(C)c2cn1 (centres unmarked) [Example 40, N-(3-(4′-(3-Cyano-3-Methylbutoxy)-4,5,5′,6′-Tetrahydro-2H-Spiro[Furan-3,8′-Pyrano[3,4-b]Pyridin]-2′-yl)-1-Methyl-1H-Pyrrolo[2,3-c]Pyridin-5-yl)Acetamide] | 152 nM |
| CC(=O)Nc1cc2c(-c3cc(OCCC(C)(C)O)c4c(n3)C3(CCOC3)OCC4)cn(C3COC3)c2cn1 (centres unmarked) [Example 49, N-(3-(4′-(3-Hydroxy-3-Methylbutoxy)-4,5,5′,6′-Tetrahydro-2H-Spiro[Furan-3, 8′-Pyrano[3,4-b]Pyridin]-2′-yl)-1-(Oxetan-3-yl)-1H-Pyrrolo[2,3-c]Pyridin-5-yl)Acetamide] | 68.1 nM |
| CC(=O)Nc1cc2c(-c3cc(OCCC(C)(C)O)c4c(n3)C3(CCOC3)OCC4)cn(C(C)C)c2cn1 (centres unmarked) [Example 50, N-(3-(4′-(3-Hydroxy-3-Methylbutoxy)-4,5,5′,6′-Tetrahydro-2H-Spiro[Furan-3, 8′-Pyrano[3,4-b]Pyridin]-2′-yl)-1-Isopropyl-1H-Pyrrolo[2,3-c]Pyridin-5-yl)Acetamide] | 47 nM |

More lines, now with the values ahead:

| IC50 | Compound |
| --- | --- |
| 102 nM | COCC(C)(C)COc1cc(-c2cn(C)c3cnc(NC(C)=O)cc23)nc2c1CCOC21CCOC1 (centres unmarked) [Example 30, N-(3-(4′-(3-Methoxy-2,2-Dimethylpropoxy)-4,5,5′,6′-Tetrahydro-2H-Spiro[Furan-3,8′-Pyrano[3,4-b]Pyridin]-2′-yl)-1-Methyl-1H-Pyrrolo[2,3-c]Pyridin-5-yl)Acetamide] |
| 38.6 nM | CC(=O)Nc1cc2c(-c3cc(OCCCOC(F)F)c4c(n3)C3(CCOC3)OCC4)cn(C)c2cn1 (centres unmarked) [Example 33, N-(3-(4′-(3-(Difluoromethoxy)Propoxy)-4,5,5′,6′-Tetrahydro-2H-Spiro[Furan-3,8′-Pyrano[3,4-b]Pyridin]-2′-yl)-1-Methyl-1H-Pyrrolo[2,3-c]Pyridin-5-yl)Acetamide] |
| 34.3 nM | CC(=O)Nc1cc2c(-c3cc(OCCCO)c4c(n3)C3(CCOC3)OCC4)cn(C)c2cn1 (centres unmarked) [Example 34, N-(3-(4′-(3-Hydroxypropoxy)-4,5,5′,6′-Tetrahydro-2H-Spiro[Furan-3,8′-Pyrano[3,4-b]Pyridin]-2′-yl)-1-Methyl-1H-Pyrrolo[2,3-c]Pyridin-5-yl)Acetamide] |
| 20.4 nM | CC(=O)Nc1cc2c(-c3cc(OCC(C)(C)CO)c4c(n3)C3(CCOC3)OCC4)cn(C)c2cn1 (centres unmarked) [Example 35, N-(3-(4′-(3-Hydroxy-2,2-Dimethylpropoxy)-4,5,5′,6′-Tetrahydro-2H-Spiro[Furan-3,8′-Pyrano[3,4-b]Pyridin]-2′-yl)-1-Methyl-1H-Pyrrolo[2,3-c]Pyridin-5-yl)Acetamide] |
| 52.9 nM | COCCOCc1cc(-c2cn(C)c3cnc(NC(C)=O)cc23)nc2c1CCOC21CCOC1 (centres unmarked) [Example 36, N-(3-(4′-((2-Methoxyethoxy)Methyl)-4,5,5′,6′-Tetrahydro-2H-Spiro[Furan-3,8 ‘-Pyrano[3,4-b]Pyridin]-2′-yl)-1methyl-1H-Pyrrolo[2,3-c]Pyridin-5-yl)Acetamide] |
| 9.6 nM | CC(=O)Nc1cc2c(-c3cc(CC#N)c4c(n3)C3(CCOC3)OCC4)cn(C)c2cn1 (centres unmarked) [Example 42, N-(3-(4′-(Cyanomethyl)-4,5,5′,6′-Tetrahydro-2H-Spiro[Furan-3,8′-Pyrano[3,4-b]Pyridin]-2′-yl)-1-Methyl-1H-Pyrrolo[2,3-c]Pyridin-5-yl)Acetamide] |
| 40.2 nM | CC(=O)Nc1cc2c(-c3cc(SCCC(C)(C)O)c4c(n3)C3(CCOC3)OCC4)cn(C)c2cn1 (centres unmarked) [Example 44, N-(3-(4′-((3-Hydroxy-3-Methylbutyl)Thio)-4,5,5′,6′-Tetrahydro-2H-Spiro[Furan-3,8′-Pyrano[3,4-b]Pyridin]-2′-yl)-1-Methyl-1H-Pyrrolo[2,3-c]Pyridin-5-yl)Acetamide] |
| 111 nM | CC(=O)Nc1cc2c(-c3cc(COCC(C)(C)O)c4c(n3)C3(CCOC3)OCC4)cn(C)c2cn1 (centres unmarked) [Example 45, N-(3-(4′-((2-Hydroxy-2-Methylpropoxy)Methyl)-4,5,5′,6′-Tetrahydro-2H-Spiro[Furan-3,8′-Pyrano[3,4-b]Pyridin]-2′-yl)-1-Methyl-1H-Pyrrolo[2,3-c]Pyridin-5-yl)Acetamide] |
| 115 nM | CC(=O)Nc1cc2c(-c3cc(NCCC(C)(C)O)c4c(n3)C3(CCOC3)OCC4)cn(C)c2cn1 (centres unmarked) [Example 48, N-(3-(4′-((3-Hydroxy-3-Methylbutyl)Amino)-4,5,5′,6′-Tetrahydro-2H-Spiro[Furan-3,8′-Pyrano[3,4-b]Pyridin]-2′-yl)-1-Methyl-1H-Pyrrolo[2,3-c]Pyridin-5-yl)Acetamide] |
